{"source": "patent US9192599B2", "about": "“Treating inflammation and inflammatory pain in mucosa using mucosal prolonged release bioadhesive therapeutic carriers” (Onxeo S.A., priority 2008, dated 2015)", "key": {"mucositis in hamsters": {"tested_on": "mucositis in hamsters", "conditions": "for mucositis severity, daily scores vs vehicle control (Mann-Whitney rank sum): day −1 to 20; for average weight gain, % of starting weight: days −1 to 20, topical; for animal days with mucositis score of 3 or higher / peak mean mucositis score: days −1 to 20; for peak mean mucositis score: peak on day 16, scale 0-5; for course and severity of mucositis, comparison of schedules: day −1 to 20, topical", "protocol": "Thirty-two (32) male Syrian Golden Hamsters were randomly assigned to four (4) equally-sized groups. […] All agents were administered topically. On study day 0, each hamster was irradiated with a single dose of 40 Gy directed to the left buccal cheek pouch. Animals were subsequently weighed and observed daily. Beginning on day 6 and continuing on alternate days for the duration of the study, images of the left cheek pouch mucosa was obtained. At the conclusion of the in-life phase of the study, the images were scored for mucositis severity using a validated scale and the number of days of ulcerative mucositis was assessed using a Chi-squared test of scores of ≧3 throughout the study. The individual daily group scores were evaluated using a rank sum test.\nMucositis was induced using a standardized acute radiation protocol. A single dose of radiation (40 Gy/dose) was administered to all animals on day 0. Radiation was generated with a 160 kilovolt potential (15-ma) source at a focal distance of 40 cm, hardened with a 0.35 mm Al filtration system. Irradiation targeted the left buccal pouch mucosa at a rate of 2.5 Gy/minute. Prior to irradiation, animals were anesthetized with an intraperitoneal injection of Ketamine (160 mg/ml) and Xylazine (8 mg/ml). The left buccal pouch was everted, fixed and isolated using a lead shield.\nFor the evaluation of mucositis, the animals were anesthetized with an Inhalation anesthetic, and the left pouch everted. Mucositis was scored visually by comparison to a validated photographic scale, ranging from 0 for normal, to 5 for severe ulceration (clinical scoring). In descriptive terms, this scale is defined in Table 2:\nA score of 1-2 is considered to represent a mild stage of the disease, whereas a score of 3-5 is considered to indicate moderate to severe mucositis. Following visual scoring, a photograph was taken of each animal's mucosa using a standardized technique. At the conclusion of the experiment, all films were developed and the photographs randomly numbered. At least two independent trained observers graded the photographs in blinded fashion using the above-described scale (blinded scoring).\nTest materials were given by topical administration directed to the left cheek pouch daily as detailed in Table 3.\nto day 20. Animals in Groups 1, 3 and 4 were dosed at 6 am, 11 am, 4 pm and 9 pm. Animals in Group 2 were dosed at 6 am.\nMucositis was evaluated clinically starting on Day 6, and continuing on alternate days until day 28."}, "TNFα": {"tested_on": "TNFα", "test": "TNFα quantification by ELISA in human oral mucosa organotypic culture stimulated by substance P", "assay_type": "cell-based", "protocol": "Biopsy samples of clinically healthy non keratinised human oral mucosa were obtained from patients undergoing surgery.\nSmall biopsies (explant size: 5 mm^2 surface and 3 mm thickness and about 15 to 20 mg weight) were transferred onto permeable polycarbonate membrane transwells (12 mm diameter, 12 μm pore size) in a well of a 12 well plate (as previously described Boisnic S. et al., 2003 and 2006) containing 700 μl of defined medium (DMEM, antibiotics, hormones, pituitary extract, SVF). For each donor, the gingival biopsy was cut to obtain the same weight so that to have comparison between different conditions tested. Explants were maintained at the interface between air and medium: the oral mucosa epithelium was in contact with air and the chorion was exposed to the media by diffusion through the porous polycarbonate membrane.\nCohesion between gingival fragment and insert was obtained with a polyvinylsiloxane addition type silicone elastomer seal (Coltene® president) in such a way that no gingival retraction or lateral passage of the product towards the dermis was possible. The culture was set up for 2 days in a humidified atmosphere containing 5% CO2 at 37° C.\nThe stimulation of the experimental oral mucosa inflammatory process was done by the neuropeptide substance P (SP) (Boisnic et al., 2003).\nThe neuropetide SP ([SP]=10 μM) was added (or not) to the culture medium in order to simulate the mucositis pro-inflammatory process. SP was in contact with the mucosal chorion after diffusion through the porous membrane.\nThe cell culture lasted two days (“D0” for the first day and “D1” for the second day).\nTherefore the clonidine treatment was done before and during substance P stimulation.\nRemoved D1 culture medium in each well; aliquot it in 7 samples of 100 μl and store at −80° C. for cytokines release analysis.\nAt the end of each culture all the human oral mucosa explants were weighed (cytokines release expressed as pg/mg of cultured oral mucosa explants).\nMean values and standard deviations were calculated for each parameter. The statistical significance of changes recorded in the parameters were determined with unpaired Mann-Whitney U test (p<0.05)."}}, "note": "Several values for one entry are separate records, joined by “and”; a condition that tells them apart may be missing. Identical values can stand only once. Like-named read-outs stand apart in the source and are kept apart here."}
{"molecule": "Clc1cccc(Cl)c1NC1=NCCN1", "note": "[clonidine, N-(2,6-dichlorophenyl)-4,5-dihydro-1H-imidazol-2-amine]", "values": [{"measurement": "mucositis severity, daily scores vs vehicle control (Mann-Whitney rank sum)", "setting": "mucositis in hamsters; 12.5 μg/kg 4 times daily, days 20, 22 and 24", "result": "significantly lower mucositis scores than the vehicle controls"}, {"measurement": "mucositis severity, daily scores vs vehicle control (Mann-Whitney rank sum)", "setting": "mucositis in hamsters; 12.5 μg/kg 4 times daily, days 20, 22 and 24, listed as Clonidine", "result": "significantly reduced the severity of mucositis"}, {"measurement": "average weight gain, % of starting weight", "setting": "mucositis in hamsters; 12.5 μg/kg 4 times daily", "result": 46.1, "unit": "%"}, {"measurement": "animal days with mucositis score of 3 or higher", "setting": "mucositis in hamsters; 12.5 μg/kg 4 times daily, p=0.047 vs vehicle", "result": 26.0, "unit": "%"}, {"measurement": "peak mean mucositis score", "setting": "mucositis in hamsters; 12.5 μg/kg 4 times daily", "result": 3.0}, {"measurement": "mucositis severity, daily scores vs vehicle control (Mann-Whitney rank sum)", "setting": "mucositis in hamsters; 25 μg/kg 4 times daily, days 6 and 14", "result": "significantly lower mucositis scores than the vehicle controls"}, {"measurement": "mucositis severity, daily scores vs vehicle control (Mann-Whitney rank sum)", "setting": "mucositis in hamsters; 25 μg/kg 4 times daily, days 6 and 14, listed as Clonidine", "result": "significantly reduced the severity of mucositis"}, {"measurement": "average weight gain, % of starting weight", "setting": "mucositis in hamsters; 25 μg/kg 4 times daily", "result": 45.0, "unit": "%"}, {"measurement": "animal days with mucositis score of 3 or higher", "setting": "mucositis in hamsters; 25 μg/kg 4 times daily, p=0.125 vs vehicle", "result": 28.1, "unit": "%"}, {"measurement": "peak mean mucositis score", "setting": "mucositis in hamsters; 25 μg/kg 4 times daily", "result": 3.1}, {"measurement": "course and severity of mucositis, comparison of schedules", "setting": "mucositis in hamsters; 100 μg/kg once daily", "result": "superior to the other concentrations and schedules tested"}, {"measurement": "course and severity of mucositis, comparison of schedules", "setting": "mucositis in hamsters; 100 μg/kg once daily, listed as Clonidine", "result": "favorably altered the course and severity of mucositis"}, {"measurement": "mucositis severity, daily scores vs vehicle control (Mann-Whitney rank sum)", "setting": "mucositis in hamsters; 100 μg/kg once daily, days 16, 20 and 22", "result": "significantly different than the vehicle control group"}, {"measurement": "mucositis severity, daily scores vs vehicle control (Mann-Whitney rank sum)", "setting": "mucositis in hamsters; 100 μg/kg once daily, days 16, 20 and 22, listed as Clonidine", "result": "significantly reduced the severity of mucositis"}, {"measurement": "average weight gain, % of starting weight", "setting": "mucositis in hamsters; 100 μg/kg once daily", "result": 51.3, "unit": "%"}, {"measurement": "animal days with mucositis score of 3 or higher", "setting": "mucositis in hamsters; 100 μg/kg once daily, p=0.003 vs vehicle", "result": 21.9, "unit": "%"}, {"measurement": "peak mean mucositis score", "setting": "mucositis in hamsters; 100 μg/kg once daily", "result": 2.8}, {"measurement": "severity of mucositis based on mucositis score area under the curve", "setting": "mucositis in hamsters; all three treatment groups, p=0.0007", "result": "severity of mucositis was reduced"}, {"measurement": "adverse reaction to treatment", "setting": "mucositis in hamsters; any of the doses tested", "result": "no evidence of any significant adverse reaction"}, {"measurement": "anti-inflammatory effect on gingiva stimulated by SP", "setting": "TNFα; doses 0.009, 0.03, 0.09 and 0.3 μg/ml", "result": "No significant anti-inflammatory effect"}, {"measurement": "TNFα quantification by ELISA", "setting": "TNFα; gingiva + SP, 0.009 μg/ml clonidine", "result": "1.14 ± 0.7", "unit": "pg/mg"}, {"measurement": "TNFα quantification by ELISA", "setting": "TNFα; gingiva + SP, 0.03 μg/ml clonidine", "result": "1.02 ± 0.4", "unit": "pg/mg"}, {"measurement": "TNFα quantification by ELISA", "setting": "TNFα; gingiva + SP, 0.09 μg/ml clonidine", "result": "1.08 ± 0.29", "unit": "pg/mg"}, {"measurement": "TNFα quantification by ELISA", "setting": "TNFα; gingiva + SP, 0.3 μg/ml clonidine", "result": "0.86 ± 0.4", "unit": "pg/mg"}, {"measurement": "TNFα quantification by ELISA", "setting": "TNFα; gingiva + SP, 0.9 μg/ml clonidine", "result": "0.74 pg/mg and 0.74 ± 0.36 (* p = 0.0106) pg/mg"}, {"measurement": "TNFα quantification by ELISA", "setting": "TNFα; gingiva + SP, 3 μg/ml clonidine", "result": "0.67 pg/mg and 0.67 ± 0.27 (* p = 0.0056) pg/mg"}, {"measurement": "TNFα quantification by ELISA", "setting": "TNFα; gingiva without SP, 3 μg/ml clonidine", "result": "0.83 ± 0.40", "unit": "pg/mg"}, {"measurement": "TNFα quantification by ELISA", "setting": "TNFα; gingiva without SP, 3 μg/ml clonidine, listed as Clonidine", "result": 0.83, "unit": "pg/mg"}]}
{"molecule": "SP: neuropeptide substance P added to culture medium to simulate the mucositis pro-inflammatory process", "values": [{"measurement": "TNFα quantification by ELISA", "setting": "TNFα; gingiva + SP 10 μM, no clonidine (positive control)", "result": "1.7 ± 1.09 (# p = 0.0056) pg/mg"}, {"measurement": "TNFα quantification by ELISA", "setting": "TNFα; gingiva + SP 10 μM, no clonidine (positive control), listed as substance P", "result": 1.7, "unit": "pg/mg"}]}
